One test deals with ROS1 (Homo sapiens, UniProt P08922). Kind of test: HTRF KinEASE-TK kinase inhibitory assay, ROS1. The conditions noted are these: for inhibition at 1 µM: read-out: ROS1 Inhibition (1μM); for ROS1 Inhibition (1μM): kinase inhibition % at 1 μM. The test is classed as biochemical.
A further test concerns the target c-MET (Homo sapiens, UniProt P08581). Kind of test: HTRF kinase inhibitory assay, c-MET. Type of test: biochemical. The conditions noted are these: for inhibition at 1 µM: read-out: c-MET Inhibition (1μM); for c-MET Inhibition (1μM): kinase inhibition % at 1 μM.
Another test concerns the target ALK^WT (Homo sapiens, UniProt Q9UM73). Briefly: HTRF KinEASE-TK kinase inhibitory assay, ALK wild type. The test is classed as biochemical. The conditions noted are these: for inhibition at 1 µM: read-out: ALK Inhibition (1μM); for ALK Inhibition (1μM): kinase inhibition % at 1 μM.
Test [1] relates to NCI-H3122 cell line harbouring EML4-ALK fusion. Briefly: Antiproliferative MTT assay, NCI-H3122. Particulars: read-out: Cellular IC50 (μM) NCI-H3122. The test is classed as cell-based, human.
The test system of test [2] is HCC-78 cell line harbouring SLC34A2-ROS1 fusion. Kind of test: Antiproliferative MTT assay, HCC-78. The test is classed as cell-based, human. Particulars: read-out: Cellular IC50 (μM) HCC-78.
The mark [3] stands for this setting: average of two independent experiments.
[4] abbreviates: read-out: ROS1 IC50, average of two independent experiments.
The mark [5] stands for this setting: MTT, 72 h, mean of at least three independent experiments.

Read-outs that look alike come from different tables or passages of the source.

These results are taken from PMC10288926 (Journal of Enzyme Inhibition and Medicinal Chemistry, 2023).

c-MET, sequence (P08581 25-1390): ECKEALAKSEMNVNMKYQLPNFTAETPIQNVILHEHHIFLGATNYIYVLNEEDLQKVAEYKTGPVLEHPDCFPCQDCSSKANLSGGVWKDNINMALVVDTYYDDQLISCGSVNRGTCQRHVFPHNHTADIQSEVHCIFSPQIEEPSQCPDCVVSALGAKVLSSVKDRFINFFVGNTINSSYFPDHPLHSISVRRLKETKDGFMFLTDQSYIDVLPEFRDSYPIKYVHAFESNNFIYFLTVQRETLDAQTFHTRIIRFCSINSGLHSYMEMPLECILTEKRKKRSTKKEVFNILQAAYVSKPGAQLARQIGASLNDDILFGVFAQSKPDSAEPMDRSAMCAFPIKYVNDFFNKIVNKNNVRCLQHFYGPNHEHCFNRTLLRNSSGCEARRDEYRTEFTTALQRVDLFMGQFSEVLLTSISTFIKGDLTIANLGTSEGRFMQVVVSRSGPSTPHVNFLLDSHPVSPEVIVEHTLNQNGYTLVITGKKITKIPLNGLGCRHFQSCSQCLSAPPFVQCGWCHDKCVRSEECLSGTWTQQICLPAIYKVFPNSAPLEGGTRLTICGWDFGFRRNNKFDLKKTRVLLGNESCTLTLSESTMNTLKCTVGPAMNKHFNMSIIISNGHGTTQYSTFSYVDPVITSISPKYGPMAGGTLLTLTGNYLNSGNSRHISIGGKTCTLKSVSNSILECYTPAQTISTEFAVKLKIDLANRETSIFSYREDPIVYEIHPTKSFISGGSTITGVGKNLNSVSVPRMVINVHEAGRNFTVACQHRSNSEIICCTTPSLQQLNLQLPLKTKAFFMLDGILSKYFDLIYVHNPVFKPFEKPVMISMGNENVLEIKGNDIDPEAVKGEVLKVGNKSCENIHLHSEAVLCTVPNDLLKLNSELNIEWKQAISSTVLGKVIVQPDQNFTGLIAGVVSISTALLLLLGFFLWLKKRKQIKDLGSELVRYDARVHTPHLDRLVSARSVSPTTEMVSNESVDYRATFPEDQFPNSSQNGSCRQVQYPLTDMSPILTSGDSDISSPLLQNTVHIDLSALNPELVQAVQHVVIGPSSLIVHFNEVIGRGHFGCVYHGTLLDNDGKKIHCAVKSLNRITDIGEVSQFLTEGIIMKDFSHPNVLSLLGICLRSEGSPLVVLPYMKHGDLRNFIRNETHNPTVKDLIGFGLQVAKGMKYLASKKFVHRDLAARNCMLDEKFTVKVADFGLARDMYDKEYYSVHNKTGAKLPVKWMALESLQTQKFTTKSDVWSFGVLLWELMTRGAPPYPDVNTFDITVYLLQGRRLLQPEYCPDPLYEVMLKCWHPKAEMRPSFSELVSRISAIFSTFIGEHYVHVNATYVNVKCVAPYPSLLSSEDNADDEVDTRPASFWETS
ALK^WT, sequence (Q9UM73 19-1620): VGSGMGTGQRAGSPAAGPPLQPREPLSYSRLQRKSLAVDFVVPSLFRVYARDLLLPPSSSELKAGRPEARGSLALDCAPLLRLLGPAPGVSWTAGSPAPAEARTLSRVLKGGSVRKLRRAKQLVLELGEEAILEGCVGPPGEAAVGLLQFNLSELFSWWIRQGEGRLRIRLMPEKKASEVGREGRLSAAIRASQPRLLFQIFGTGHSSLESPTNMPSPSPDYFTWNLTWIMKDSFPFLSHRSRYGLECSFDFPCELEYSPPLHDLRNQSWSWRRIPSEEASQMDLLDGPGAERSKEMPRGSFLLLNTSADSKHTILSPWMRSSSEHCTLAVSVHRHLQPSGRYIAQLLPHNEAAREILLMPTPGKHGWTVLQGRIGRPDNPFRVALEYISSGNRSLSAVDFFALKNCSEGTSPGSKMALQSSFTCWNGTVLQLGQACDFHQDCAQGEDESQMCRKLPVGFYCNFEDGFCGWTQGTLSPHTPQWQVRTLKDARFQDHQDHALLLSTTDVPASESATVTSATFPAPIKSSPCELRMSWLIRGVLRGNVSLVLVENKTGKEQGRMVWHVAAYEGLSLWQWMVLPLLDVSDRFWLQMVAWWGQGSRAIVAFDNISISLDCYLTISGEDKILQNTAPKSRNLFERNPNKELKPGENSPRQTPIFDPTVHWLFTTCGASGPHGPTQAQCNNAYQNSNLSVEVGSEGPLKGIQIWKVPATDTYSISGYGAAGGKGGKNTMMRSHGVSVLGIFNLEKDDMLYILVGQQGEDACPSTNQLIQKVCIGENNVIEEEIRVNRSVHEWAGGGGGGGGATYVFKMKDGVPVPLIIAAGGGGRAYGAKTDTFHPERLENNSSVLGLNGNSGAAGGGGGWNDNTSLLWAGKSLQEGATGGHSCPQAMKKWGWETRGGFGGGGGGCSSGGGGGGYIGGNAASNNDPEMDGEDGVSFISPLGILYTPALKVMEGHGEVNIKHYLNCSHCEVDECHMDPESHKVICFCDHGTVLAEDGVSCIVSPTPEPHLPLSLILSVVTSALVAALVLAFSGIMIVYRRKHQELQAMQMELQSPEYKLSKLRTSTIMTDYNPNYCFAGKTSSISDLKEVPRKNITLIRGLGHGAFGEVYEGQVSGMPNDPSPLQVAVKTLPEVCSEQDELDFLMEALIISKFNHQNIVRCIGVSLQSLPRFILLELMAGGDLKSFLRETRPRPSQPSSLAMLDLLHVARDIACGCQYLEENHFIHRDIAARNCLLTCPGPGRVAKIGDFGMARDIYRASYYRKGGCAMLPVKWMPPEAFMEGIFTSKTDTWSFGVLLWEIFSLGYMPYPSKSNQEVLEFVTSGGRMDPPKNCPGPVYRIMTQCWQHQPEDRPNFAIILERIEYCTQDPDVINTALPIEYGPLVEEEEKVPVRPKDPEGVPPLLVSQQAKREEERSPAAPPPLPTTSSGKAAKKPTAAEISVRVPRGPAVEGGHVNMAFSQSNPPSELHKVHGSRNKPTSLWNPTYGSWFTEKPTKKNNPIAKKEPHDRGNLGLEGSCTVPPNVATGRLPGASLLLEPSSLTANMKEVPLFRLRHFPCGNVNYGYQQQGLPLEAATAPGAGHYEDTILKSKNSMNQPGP

Regarding `C[C@@H](Oc1cc(-c2cccn2C)cnc1N)c1ccccc1-c1ccccc1` [B06, (R)-3–(1-([1,1'-biphenyl]-2-yl)ethoxy)-5–(1-methyl-1H-pyrrol-2-yl)pyridin-2-amine], the IC50 against ROS1 amounted to 192 nM; in test [1] (Homo sapiens, NCI-H3122, 72 h) it was 24.8 ± 5 µM; in test [2] (Homo sapiens, HCC78, 72 h), 7.1 ± 0.7 µM. Further, the inhibition at 1 µM on ROS1 worked out at 90%; on c-MET, 9%; on ALK^WT, 44%.
Turning to `CCn1cc(-c2cnc(N)c(O[C@H](C)c3ccccc3)c2)cn1` [A03, (R)-5–(1-ethyl-1H-pyrazol-4-yl)-3–(1-phenylethoxy)pyridin-2-amine], the IC50 against ROS1 came to 317 nM; against ALK^WT it was 454 nM; in test [1] (Homo sapiens, NCI-H3122, 72 h), 101 ± 22.8 µM; in test [2] (Homo sapiens, HCC78, 72 h) it was 50.5 ± 14 µM. Also, the inhibition at 1 µM at ROS1 turned out to be 85%; at c-MET, 14%; at ALK^WT, 65%.
Turning to “(R)-5–(6-amino-5–(1-(3'-methyl-[1,1'-biphenyl]-2-yl)ethoxy)pyridin-3-yl)-1'-methylspiro[indoline-3,4'-piperidin]-2-one [C05]”, the “ROS1 Inhibition (1μM)” value on ROS1 (setting [3]) was 100%. For the same compound, the IC50 on ROS1 (setting [4]) came out at 77.3 nM; on ALK^WT (read-out: ALK IC50), 79.7 nM; in test [1] (setting [5]) it was 2.4 ± 0.1 µM; in test [2] (setting [5]), 4.6 ± 0.1 µM. The “c-MET Inhibition (1μM)” value at c-MET turned out to be 59%. Besides, the “ALK Inhibition (1μM)” value on ALK^WT was 101%.
For `CCn1cc(-c2cnc(N)c(O[C@H](C)c3ccccc3F)c2)cn1` [A07, (R)-5–(1-ethyl-1H-pyrazol-4-yl)-3–(1-(2-fluorophenyl)ethoxy)pyridin-2-amine], at ROS1, half-maximal inhibition (IC50) required 81.4 nM. Further, the inhibition at 1 µM at ROS1 was 87%; on c-MET it was 18%; at ALK^WT, 69%.
In the case of “(R)-5–(6-amino-5–(1-(4'-fluoro-[1,1'-biphenyl]-2-yl)ethoxy)pyridin-3-yl)-1'-methylspiro[indoline-3,4'-piperidin]-2-one [C06]”, at ROS1 (average of two independent experiments, 1 µM), the “ROS1 Inhibition (1μM)” value is on record as 98%. Moreover, the half-inhibitory concentration (IC50) at ROS1 (setting [4]) was determined as 31.2 nM; at ALK^WT (read-out: ALK IC50), 214 nM; in test [1] (setting [5]), 1.4 ± 0.1 µM; in test [2] (setting [5]), 3.1 ± 0.3 µM. At c-MET (1 µM), the “c-MET Inhibition (1μM)” value turned out to be 58%. Further, the “ALK Inhibition (1μM)” value at ALK^WT (1 µM) worked out at 91%.
For “(R)-5–(6-amino-5–(1-(4'-(trifluoromethoxy)-[1,1'-biphenyl]-2-yl)ethoxy)pyridin-3-yl)-1'-methylspiro[indoline-3,4'-piperidin]-2-one [C07]”, the “ROS1 Inhibition (1μM)” value at ROS1 (setting [3]) was determined as 95%. The IC50 was 73.6 nM on ROS1 (setting [4]), 414 nM at ALK^WT (read-out: ALK IC50), 2.4 ± 0.1 µM in test [1] (setting [5]) and 4.2 ± 0.2 µM in test [2] (setting [5]). Also, on c-MET, the “c-MET Inhibition (1μM)” value was 18%. Besides, the “ALK Inhibition (1μM)” value on ALK^WT worked out at 55%.
On to `C[C@@H](Oc1cc(-c2ccnn2C)cnc1N)c1ccccc1-c1ccnn1C` [B02, (R)-5–(1-methyl-1H-pyrazol-5-yl)-3–(1-(2–(1-methyl-1H-pyrazol-5-yl)phenyl)ethoxy)pyridin-2-amine], for which the IC50 was found to be 216 nM against ROS1; 689 ± 57.2 µM in test [1] (Homo sapiens, NCI-H3122, 72 h); 64.8 ± 4.5 µM in test [2] (Homo sapiens, HCC78, 72 h). Also, the inhibition at 1 µM was 86% at ROS1, 6% on c-MET and 30% on ALK^WT.
As for `CCCn1cc(-c2cnc(N)c(O[C@H](C)c3ccccc3-c3ccnn3C)c2)cn1` [B05, (R)-3–(1-(2–(1-methyl-1H-pyrazol-5-yl)phenyl)ethoxy)-5–(1-propyl-1H-pyrazol-4-yl)pyridin-2-amine], the concentration for half-maximal inhibition (IC50) against ROS1 turned out to be 260 nM; against ALK^WT, 1160 nM; in test [1] (Homo sapiens, NCI-H3122, 72 h) it was 96.2 ± 6.9 µM; in test [2] (Homo sapiens, HCC78, 72 h), 21.3 ± 0.7 µM. The inhibition at 1 µM on ROS1 worked out at 90%; at c-MET it was 26%; on ALK^WT it was 42%.
Consider `C[C@@H](Oc1cc(-c2cnn(C)c2)cnc1N)c1ccccc1` [A02, (R)-5–(1-methyl-1H-pyrazol-4-yl)-3–(1-phenylethoxy)pyridin-2-amine], for which the concentration for half-maximal inhibition (IC50) was 99.5 nM against ROS1; 458 nM against ALK^WT; 149 ± 18.5 µM in test [1] (Homo sapiens, NCI-H3122, 72 h); 36.4 ± 3.7 µM in test [2] (Homo sapiens, HCC78, 72 h). Besides, the results for the inhibition at 1 µM on ROS1, at c-MET and on ALK^WT were 101%, 2% and 65%, respectively.
For `C[C@@H](Oc1cc(-c2cnn(C)c2)cnc1N)c1ccccc1-c1ccnn1C` [B03, (R)-5–(1-methyl-1H-pyrazol-4-yl)-3–(1-(2–(1-methyl-1H-pyrazol-5-yl)phenyl)ethoxy)pyridin-2-amine], the IC50 against ROS1 worked out at 374 nM; on ALK^WT, 286 nM; in test [1] (Homo sapiens, NCI-H3122, 72 h), 207 ± 40.7 µM; in test [2] (Homo sapiens, HCC78, 72 h), 52.7 ± 15.2 µM. Further, the inhibition at 1 µM at ROS1 was found to be 74%; on c-MET, 21%; on ALK^WT it was 88%.
Turning to `CCn1cc(-c2cnc(N)c(O[C@H](C)c3ccccc3-c3ccccc3)c2)cn1` [B09, (R)-3–(1-([1,1'-biphenyl]-2-yl)ethoxy)-5–(1-ethyl-1H-pyrazol-4-yl)pyridin-2-amine], the inhibition at 1 µM was 99% on ROS1, 50% on c-MET and 92% at ALK^WT. For the same compound, the IC50 at ALK^WT was 75.9 nM; in test [1] (Homo sapiens, NCI-H3122, 72 h), 8.5 ± 1.2 µM; in test [2] (Homo sapiens, HCC78, 72 h), 11.4 ± 0.5 µM.
Turning to `C[C@@H](Oc1cc(-c2cccn2C)cnc1N)c1ccccc1-c1ccnn1C` [B01, (R)-3–(1-(2–(1-methyl-1H-pyrazol-5-yl)phenyl)ethoxy)-5–(1-methyl-1H-pyrrol-2-yl)pyridin-2-amine], the concentration for half-maximal inhibition (IC50) against ROS1 is 103 nM; in test [1] (Homo sapiens, NCI-H3122, 72 h), 186 ± 8.6 µM; in test [2] (Homo sapiens, HCC78, 72 h) it was 33.9 ± 1.8 µM. Besides, the values for the inhibition at 1 µM on ROS1, on c-MET and on ALK^WT were 81%, 0% and 30%, respectively.
Take `C[C@@H](Oc1cc(-c2ccnn2C)cnc1N)c1ccccc1-c1ccccc1` [B07, (R)-3–(1-([1,1'-biphenyl]-2-yl)ethoxy)-5–(1-methyl-1H-pyrazol-5-yl)pyridin-2-amine]: the 50% inhibitory concentration (IC50) against ROS1 was found to be 65.7 nM; against ALK^WT, 217 nM; in test [1] (Homo sapiens, NCI-H3122, 72 h), 14.3 ± 3.6 µM; in test [2] (Homo sapiens, HCC78, 72 h) it was 16.9 ± 1.4 µM. The inhibition at 1 µM at ROS1 worked out at 99%; at c-MET, 8%; at ALK^WT, 99%.
Regarding “(R)-5–(6-amino-5–(1-(4'-methyl-[1,1'-biphenyl]-2-yl)ethoxy)pyridin-3-yl)-1'-methylspiro[indoline-3,4'-piperidin]-2-one [C04]”, on ROS1 (setting [3]), the “ROS1 Inhibition (1μM)” value was 100%. Also, the IC50 at ROS1 (setting [4]) stood at 16.5 nM; at ALK^WT (read-out: ALK IC50), 38.8 nM; in test [1] (setting [5]) it was 2.4 ± 0.3 µM. Further, the “c-MET Inhibition (1μM)” value at c-MET is listed as 43%. At ALK^WT, the “ALK Inhibition (1μM)” value was found to be 100%.
Consider `CCCn1cc(-c2cnc(N)c(O[C@H](C)c3ccccc3)c2)cn1` [A04, (R)-3–(1-phenylethoxy)-5–(1-propyl-1H-pyrazol-4-yl)pyridin-2-amine], for which the concentration for half-maximal inhibition (IC50) on ROS1 stood at 964 nM; against ALK^WT it was 1540 nM. The “fold decrease in ROS1 potency compared to A02” value on ROS1 (963.9 nM vs. 99.5 nM) is listed as ~10 fold. Moreover, the values for the inhibition at 1 µM at ROS1, at c-MET and on ALK^WT were 64%, 5% and 37%, respectively.
Consider `C[C@@H](Oc1cc(-c2cccn2C)cnc1N)c1ccccc1F` [A05, (R)-3–(1-(2-fluorophenyl)ethoxy)-5–(1-methyl-1H-pyrrol-2-yl)pyridin-2-amine], for which the inhibition at 1 µM at ROS1 is 43%; at c-MET it was -10%; at ALK^WT, 18%. In addition, the IC50 stood at 168 ± 39.4 µM in test [1] (Homo sapiens, NCI-H3122, 72 h) and 278 ± 53.1 µM in test [2] (Homo sapiens, HCC78, 72 h).
For `C[C@@H](Oc1cc(-c2ccnn2C)cnc1N)c1ccccc1` [A01, (R)-5–(1-methyl-1H-pyrazol-5-yl)-3–(1-phenylethoxy)pyridin-2-amine], the 50% inhibitory concentration (IC50) at ROS1 worked out at 173 nM; on ALK^WT, 407 nM; in test [1] (Homo sapiens, NCI-H3122, 72 h) it was 152 ± 44.4 µM; in test [2] (Homo sapiens, HCC78, 72 h) it was 28.7 ± 5.8 µM. The inhibition at 1 µM was found to be 101% at ROS1, 5% at c-MET and 90% at ALK^WT.
For the compound `CCn1cc(-c2cnc(N)c(O[C@H](C)c3ccccc3-c3ccnn3C)c2)cn1` [B04, (R)-5–(1-ethyl-1H-pyrazol-4-yl)-3–(1-(2–(1-methyl-1H-pyrazol-5-yl)phenyl)ethoxy)pyridin-2-amine], the IC50 at ROS1 was determined as 80.5 nM; in test [1] (Homo sapiens, NCI-H3122, 72 h), 128 ± 25.5 µM; in test [2] (Homo sapiens, HCC78, 72 h), 28 ± 4.5 µM. In addition, the inhibition at 1 µM on c-MET is 28%; on ALK^WT it was 59%.
Regarding `C[C@@H](Oc1cc(-c2cnn(C)c2)cnc1N)c1ccccc1F` [A06, (R)-3–(1-(2-fluorophenyl)ethoxy)-5–(1-methyl-1H-pyrazol-4-yl)pyridin-2-amine], the IC50 on ROS1 is 83.1 nM; against ALK^WT, 231 nM; in test [1] (Homo sapiens, NCI-H3122, 72 h) it was 10.2 ± 0.1 µM; in test [2] (Homo sapiens, HCC78, 72 h), 16 ± 1.2 µM. In addition, the inhibition at 1 µM turned out to be 100% on ROS1, 11% at c-MET and 73% on ALK^WT.
Regarding `CCCn1cc(-c2cnc(N)c(O[C@H](C)c3ccccc3-c3ccccc3)c2)cn1` [B10, (R)-3–(1-([1,1'-biphenyl]-2-yl)ethoxy)-5–(1-propyl-1H-pyrazol-4-yl)pyridin-2-amine], the IC50 against ROS1 was 148 nM; in test [1] (Homo sapiens, NCI-H3122, 72 h), 13.9 ± 1.2 µM; in test [2] (Homo sapiens, HCC78, 72 h), 7.7 ± 1.2 µM. Moreover, the inhibition at 1 µM on ROS1 was determined as 98%; at c-MET it was 60%; at ALK^WT, 82%.
